This experiment relates to T cells isolated from mouse spleens. Nature of the experiment: T cell proliferation inhibition (CFSE flow cytometry, anti-CD3/anti-CD28 stimulation). To be noted: mouse spleen T cells, 3 days; for inhibition at 0.01 µM / inhibition at 0.1 µM / inhibition at 1 µM / inhibition at 10 µM / inhibition at 30 µM / inhibition at 50 µM: Mus musculus, T-cell, 72 h, read-out: Proliferation inhibition rate (%). The format is cell-based. How it is done:
To verify the T cell proliferation inhibitory effect of the compounds according to the present invention, the following experiment was performed based on flow cytometry analysis using carboxyfluorescein diacetate succinimidyl ester (CFSE), a fluorescent dye that binds to intracellular molecules via covalent bonds.
Spleens were extracted from 7-week-old C57BL/6 mice, ground, and then separated into single cells using a strainer (40 μm pore size, SPL). Red blood cells were removed using ACK (Ammonium-Chloride-Potassium) lysis buffer to isolate white blood cells.
Finally, using a MACS Magnetic Stand and LS column, T cells were isolated from the spleen.
The T cells isolated from the spleen were resuspended in 1 mL of free medium (RPMI-1640+200 U/mL penicillin+200 μg/mL streptomycin), and 0.3 μL of CFSE (10 mM) was added. The mixture was incubated at 37° C. for 5 minutes.
Free medium (10 mL) was added to stop the reaction, and the cells were centrifuged to obtain the cell pellet.
RPMI 1640 medium containing 10% FBS, 100 U/mL penicillin, 100 μg/mL streptomycin, and resuspended the cells. The cells were then seeded into a 96-well plate at a density of 2×10^5 cells per well and activated with CD3 and CD28 antibodies (0.5 μg/mL each) to activate T cells.
The compound diluted in DMSO was added at concentrations of 10 nM, 100 nM, 1 μM, 10 μM, 30 μM, and 50 μM, with three wells per concentration, and cultured at 37° C. and 5% CO2 for three days. The cells were then analyzed using a FACS Canto instrument.
The proliferation inhibition rate (%) was calculated using the following formula: […]

Take `Nc1ncccc1C(=O)NCCCCCCCCCCCCN1CCN(C(=O)C2CC2)CC1` [Compound 99, 2-amino-N-(12-(4-(cyclopropanecarbonyl)piperazin-1-yl)dodecyl)nicotinamide]: the inhibition at 0.01 µM (compound 10 nM) was -12.1%. The inhibition at 0.1 µM (compound 100 nM) came to 100%. In addition, the inhibition at 1 µM (compound 1 μM) stood at 100%. Moreover, the inhibition at 10 µM (compound 10 μM) came to 100%. Further, the inhibition at 30 µM (compound 30 μM) came to 100%. Besides, for the setting “compound 50 μM”, the inhibition at 50 µM came out at 100%.

Consider `CCOC(=O)C1CCN(CCCCCCCCCCCCNC(=O)c2cccnc2N)CC1` [Compound 103, Ethyl 1-(12-(2-aminonicotinamido)dodecyl)piperidine-4-carboxylate], for which, where the note is “compound 10 nM”, the inhibition at 0.01 µM is -6.43%. Also, the inhibition at 0.1 µM (compound 100 nM) came out at 100%. Moreover, the inhibition at 1 µM (compound 1 μM) was 100%. Besides, the inhibition at 10 µM (compound 10 μM) stood at 100%. The inhibition at 30 µM (compound 30 μM) was found to be 100%. Moreover, the inhibition at 50 µM (compound 50 μM) is 100%.

Regarding `Cc1ccc(C(=O)NCCCCCCCCCCCCN2CCN(C)CC2)nc1` [Compound 202, 5-Methyl-N-(12-(4-methylpiperazin-1-yl)dodecyl)picolinamide], under “compound 10 nM”, the inhibition at 0.01 µM stood at 4.05%. For the same compound, the inhibition at 0.1 µM (compound 100 nM) stood at 13.2%. The inhibition at 1 µM (compound 1 μM) is 19%. Also, the inhibition at 10 µM (compound 10 μM) turned out to be 100%. Also, the inhibition at 30 µM (compound 30 μM) came to 100%. Further, the inhibition at 50 µM (compound 50 μM) was 100%.

With `Nc1ncccc1C(=O)NCCCCCCCCCCCCN1CCC2CCCCC2C1` (centres unmarked) [Compound 16, 2-Amino-N-(12-(octahydroisoquinolin-2 (1H)-yl)dodecyl) nicotinamide], the “Proliferation inhibition rate (%)” value by setting is: (compound 10 nM) 4.13%; (compound 100 nM) −2.93%; (compound 1 μM) 100.00%; (compound 10 μM) 100.00%; (compound 30 μM) 100.00%; (compound 50 μM) 100.00%.

Regarding `CN1CCN(CCCCCCCCCCCCNC(=O)c2cccnc2Cl)CC1` [Compound 118, 2-chloro-N-(12-(4-methylpiperazin-1-yl)dodecyl)nicotinamide], the inhibition at 0.01 µM (compound 10 nM) was found to be 4.24%. Besides, where the note is “compound 100 nM”, the inhibition at 0.1 µM came to 4.82%. Besides, the inhibition at 1 µM (compound 1 μM) was determined as 12.6%. The inhibition at 10 µM (compound 10 μM) was found to be 34.5%. Further, the inhibition at 30 µM (compound 30 μM) is 88.6%. In addition, under “compound 50 μM”, the inhibition at 50 µM was determined as 100%.

As for `COc1cccc(OC)c1C(=O)NCCCCCCCCCCCCN1CCN(C)CC1` [Compound 218, 2,6-Dimethoxy-N-(12-(4-methylpiperazin-1-yl)dodecyl)benzamide], the inhibition at 0.01 µM (compound 10 nM) was 1.31%. Also, the inhibition at 0.1 µM (compound 100 nM) is 2.74%. For the same compound, the inhibition at 1 µM (compound 1 μM) came out at 12.4%. Moreover, for the setting “compound 10 μM”, the inhibition at 10 µM is 100%. Further, where the note is “compound 30 μM”, the inhibition at 30 µM was 100%. The inhibition at 50 µM (compound 50 μM) turned out to be 100%.

Regarding `Cc1nn(CCCCCCCCCCCCNC(=O)c2cccnc2N)cc1Br` [Compound 105, 2-Amino-N-(12-(4-bromo-3-methyl-1H-pyrazol-1-yl)dodecyl)nicotinamide], the inhibition at 0.01 µM (compound 10 nM) stood at 6.73%. Further, under “compound 100 nM”, the inhibition at 0.1 µM was determined as 8.33%. Where the note is “compound 1 μM”, the inhibition at 1 µM was determined as 38.9%. Also, the inhibition at 10 µM (compound 10 μM) came to 100%. The inhibition at 30 µM (compound 30 μM) was 100%. Besides, the inhibition at 50 µM (compound 50 μM) worked out at 100%.

Turning to `O=C(NCCCCCCCCCCCCF)c1ccncc1I` [Compound 76, N-(12-fluoro-dodecyl)-3-iodo-isonicotinamide], under “compound 10 nM”, the inhibition at 0.01 µM is 0%. In addition, the inhibition at 0.1 µM (compound 100 nM) stood at 0%. The inhibition at 1 µM (compound 1 μM) came out at 0%. The inhibition at 10 µM (compound 10 μM) was -4.95%. The inhibition at 30 µM (compound 30 μM) came to 23.7%. For the same compound, the inhibition at 50 µM (compound 50 μM) is 97.8%.

`CN1CCN(CCCCCCCCCCCCNC(=O)c2ccccc2-n2cccc2)CC1` [Compound 193, N-(12-(4-methylpiperazin-1-yl)dodecyl)-2-(1H-pyrrol-1-yl)benzamide]: the inhibition at 0.01 µM (compound 10 nM) came out at 5.02%. For the same compound, for the setting “compound 100 nM”, the inhibition at 0.1 µM amounted to 4.87%. For the same compound, the inhibition at 1 µM (compound 1 μM) worked out at 12%. Further, for the setting “compound 10 μM”, the inhibition at 10 µM is 100%. Besides, for the setting “compound 30 μM”, the inhibition at 30 µM is 100%. For the same compound, under “compound 50 μM”, the inhibition at 50 µM stood at 100%.

`CN1CCN(CCCCCCCCCCCCNC(=O)c2cnccc2N)CC1` [Compound 211, 4-Amino-N-(12-(4-methylpiperazin-1-yl)dodecyl)nicotinamide]: under “compound 50 μM”, the inhibition at 50 µM is 100%. The “Proliferation inhibition rate (%)” value (compound 10 nM, listed as KP-63, 0.01 µM) is listed as −2.17%; the “Proliferation inhibition rate (%)” value (compound 100 nM, listed as KP-63, 0.1 µM) is listed as −0.87%; the “Proliferation inhibition rate (%)” value (compound 1 μM, listed as KP-63, 1 µM) is 9.70%; the “Proliferation inhibition rate (%)” value (compound 10 μM, listed as KP-63, 10 µM) is listed as 90.01%.

For `Nc1ncccc1C(=O)NCCCCCCCCCCCCN1CCC(F)(F)CC1` [Compound 114, 2-amino-N-(12-(4,4-difluoropiperidin-1-yl)dodecyl)nicotinamide], under “compound 10 nM”, the inhibition at 0.01 µM is -18.3%. The inhibition at 0.1 µM (compound 100 nM) amounted to 26.2%. Moreover, the inhibition at 1 µM (compound 1 μM) worked out at 100%. Under “compound 10 μM”, the inhibition at 10 µM stood at 100%. In addition, the inhibition at 30 µM (compound 30 μM) turned out to be 100%. In addition, the inhibition at 50 µM (compound 50 μM) worked out at 100%.

Turning to `Cc1nccn1-c1cccc(C(=O)NCCCCCCCCCCCCN2CCN(C)CC2)c1` [Compound 207, 3-(2-methyl-1H-imidazol-1-yl)-N-(12-(4-methylpiperazin-1-yl)dodecyl)benzamide], under “compound 10 nM”, the inhibition at 0.01 µM is -5.35%. Besides, the inhibition at 0.1 µM (compound 100 nM) was -3.91%. Besides, the inhibition at 1 µM (compound 1 μM) is -3.04%. For the same compound, the inhibition at 10 µM (compound 10 μM) came to 100%. Also, the inhibition at 30 µM (compound 30 μM) is 100%. The inhibition at 50 µM (compound 50 μM) was found to be 100%.

For `CC(C)N1CCN(CCCCCCCCCCCCNC(=O)c2cccnc2N)CC1` [Compound 104, 2-Amino-N-(12-(4-isopropylpiperazin-1-yl)dodecyl) nicotinamide], the “Proliferation inhibition rate (%)” value by setting is: (compound 10 nM) 100.00%; (compound 100 nM) 100.00%; (compound 1 μM) 100.00%; (compound 10 μM) 100.00%; (compound 30 μM) 100.00%; (compound 50 μM) 100.00%.

`Nc1ncccc1C(=O)NCCCCCCCCCCCCN1CCOC1=O` [Compound 127, 2-amino-N-(12-(2-oxooxazolidin-3-yl)dodecyl) nicotinamide]: the “Proliferation inhibition rate (%)” value is −2.24% (compound 10 nM); 10.30% (compound 100 nM); 15.07% (compound 1 μM); 100.00% (compound 10 μM); 100.00% (compound 30 μM); 100.00% (compound 50 μM).

For the compound `COCCN1CCN(CCCCCCCCCCCCNC(=O)c2cccnc2N)CC1` [Compound 95, 2-amino-N-(12-(4-(2-methoxyethyl)piperazin-1-yl)dodecyl)nicotinamide], the inhibition at 0.01 µM (compound 10 nM) was determined as 94.4%. Besides, the inhibition at 0.1 µM (compound 100 nM) was 100%. Moreover, where the note is “compound 1 μM”, the inhibition at 1 µM turned out to be 100%. For the same compound, under “compound 10 μM”, the inhibition at 10 µM was found to be 100%. Besides, the inhibition at 30 µM (compound 30 μM) stood at 100%. In addition, under “compound 50 μM”, the inhibition at 50 µM was 100%.

Take `CN1CCN(CCCCCCCCCCCCNC(=O)c2ccccc2Oc2ccccc2)CC1` [Compound 214, N-(12-(4-methylpiperazin-1-yl)dodecyl)-2-phenoxybenzamide]: the inhibition at 0.01 µM (compound 10 nM) stood at 2.32%. Also, the inhibition at 0.1 µM (compound 100 nM) is 12.2%. Further, the inhibition at 1 µM (compound 1 μM) is 17.4%. Also, the inhibition at 10 µM (compound 10 μM) is 100%. Further, the inhibition at 30 µM (compound 30 μM) came to 100%. The inhibition at 50 µM (compound 50 μM) amounted to 100%.

For the compound `N#CCCCCCCCCCCNC(=O)c1cccnc1N` [Compound 79, 2-amino-N-(10-cyano-decyl)-nicotinamide], the inhibition at 0.01 µM (compound 10 nM) was -2.19%. Moreover, the inhibition at 0.1 µM (compound 100 nM) was 1.23%. Also, the inhibition at 1 µM (compound 1 μM) was 7.12%. Further, the inhibition at 10 µM (compound 10 μM) was determined as 11%. In addition, under “compound 30 μM”, the inhibition at 30 µM turned out to be 27.9%. Moreover, the inhibition at 50 µM (compound 50 μM) was 34.7%.

As to `O=C(NCCCCCCCCCCCCF)c1cccnc1Br` [Compound 58, 2-Bromo-N-(12-fluoro-dodecyl)-nicotinamide], the inhibition at 0.01 µM (compound 10 nM) was -4.38%. Where the note is “compound 100 nM”, the inhibition at 0.1 µM stood at 1.78%. Besides, the inhibition at 1 µM (compound 1 μM) is 1.92%. In addition, the inhibition at 10 µM (compound 10 μM) was 20%. The inhibition at 30 µM (compound 30 μM) was found to be 78.9%. Besides, the inhibition at 50 µM (compound 50 μM) turned out to be 95.8%.
